This experiment addresses T1, human mGluR2 (Homo sapiens, UniProt Q14416).
T1 construct: If the GTPgammaS assay was used: nothing is fused
The experiment is described as follows: mGluR2 potentiator functional assays (FLIPR calcium mobilization or [35S]-GTPγS binding; not stated which). In kind it is cell-based. The note with it: active in assays described herein; allosteric activator (potentiator) activity at mGluR2, assay not specified. The source says: The pharmacological properties of the compounds of the invention can be analyzed using standard assays for functional activity. Examples of glutamate receptor assays are well known in the art as described in, for example, Aramori et al., 1992, Neuron, 8:757; Tanabe et al., 1992, Neuron, 8:169; Miller et al., 1995, J. Neuroscience, 15:6103; Balazs, et al., 1997, J. Neurochemistry, 1997, 69:151. The methodology described in these publications is incorporated herein by reference. Conveniently, the compounds of the invention can be studied by means of an assay that measures the mobilization of intracellular calcium, [Ca^2+]i in cells expressing mGluR2.
Fluorometric Imaging Plate Reader (FLIPR) analysis was used to detect allosteric activators of mGluR2 via calcium mobilization. A clonal HEK 293 cell line expressing a chimeric mGluR2/CaR construct comprising the extracellular and transmembrane domains of human mGluR2 and the intracellular domain of the human calcium receptor, fused to the promiscuous chimeric protein G[…]qi5 was used. […]
FLIPR experiments were done using a laser setting of 0.8 W and a 0.4 second CCD camera shutter speed. […] An addition of test compound (0.01 μM to 30 μM in duplicate) was made after 10 seconds of baseline fluorescent readings were recorded on FLIPR. Fluorescent signals were then recorded for an additional 75 seconds at which point a second addition of DCG-IV (0.2 μM) was made and fluorescent signals were recorded for an additional 65 seconds. Fluorescent signals were measured as the peak height of the response within the sample period. Data was analyzed using Assay Explorer, and EC50 and Emax values (relative to maximum DCG-IV effect) were calculated using a four parameter logistic equation.
A [^35S]-GTPγS binding assay was used to functionally assay mGluR2 receptor activation. The allosteric activator activity of compounds at the human mGluR2 receptor were measured using a [^35S]-GTPγS binding assay with membranes prepared from CHO cells which stably express the human mGluR2. […]
On the technique in general: Calcium flux is commonly read through the fluorescence of an indicator in the cells.
T1 sequence (Q14416 19-819 limits assumed): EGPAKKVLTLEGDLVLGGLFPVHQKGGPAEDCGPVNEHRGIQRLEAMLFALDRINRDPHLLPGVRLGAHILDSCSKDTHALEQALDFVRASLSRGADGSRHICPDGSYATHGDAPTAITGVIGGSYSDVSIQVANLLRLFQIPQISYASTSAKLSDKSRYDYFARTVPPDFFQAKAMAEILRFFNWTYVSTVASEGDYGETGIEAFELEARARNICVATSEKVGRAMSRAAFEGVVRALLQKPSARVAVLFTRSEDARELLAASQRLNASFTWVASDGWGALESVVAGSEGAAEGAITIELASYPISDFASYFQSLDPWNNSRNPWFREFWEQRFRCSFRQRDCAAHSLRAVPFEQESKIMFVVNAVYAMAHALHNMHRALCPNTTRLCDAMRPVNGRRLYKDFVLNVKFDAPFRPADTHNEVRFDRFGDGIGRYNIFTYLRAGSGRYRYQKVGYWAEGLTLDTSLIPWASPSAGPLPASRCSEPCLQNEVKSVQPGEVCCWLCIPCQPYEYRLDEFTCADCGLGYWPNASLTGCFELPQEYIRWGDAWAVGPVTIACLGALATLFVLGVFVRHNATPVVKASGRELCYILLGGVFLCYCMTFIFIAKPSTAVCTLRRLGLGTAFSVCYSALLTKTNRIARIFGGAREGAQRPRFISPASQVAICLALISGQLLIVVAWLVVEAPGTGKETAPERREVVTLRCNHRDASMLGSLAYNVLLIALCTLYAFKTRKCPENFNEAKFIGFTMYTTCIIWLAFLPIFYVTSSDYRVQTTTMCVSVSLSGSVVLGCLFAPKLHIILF
For orientation: EC50 means the concentration giving half of the maximal effect. Turning to `Cc1nc(-c2cccc(N(S(C)(=O)=O)S(C)(=O)=O)c2)cc2c1C(=O)N(Cc1ccc(OC(F)(F)F)cc1)C2` [Compound 9, 6-(3-dimethylsulphanomidephenyl)-4-methyl-2-[4-(trifluoromethoxy)benzyl]-1,2-dihydro-3H-pyrrolo[3,4-c]pyridin-3-one], the concentration giving a half-maximal response (EC50) was 160 nM. Turning to `Cc1nc(-c2cccc(NS(C)(=O)=O)c2)cc2c1C(=O)N(Cc1ccc(OC(F)(F)F)cc1)C2` [Compound 13, 6-(3-methylsulphanomidephenyl)-4-methyl-2-[4-(trifluoromethoxy)benzyl]-1,2-dihydro-3H-pyrrolo[3,4-c]pyridin-3-one], the EC50 was determined as 1330 nM. Regarding `Cc1nc(-c2cccc(NC=O)c2)cc2c1C(=O)N(CC1CC1)C2` [Compound 20, {3-[2-(cyclopropylmethyl)-4-methyl-3-oxo-2,3-dihydro-1H-pyrrolo[3,4-c]pyridin-6-yl]phenyl}formamide], the EC50 turned out to be 670 nM.

These data come from patent US20110053953A1, “AZA-Isoindolones and Their Use as Metabotropic Glutamate Receptor Potentiators - 613” (priority 2007, published 2011).
